Target: T1, Human CB2 (Homo sapiens, UniProt P34972)
T1 construct: expressed in transfected cells; host or cells: CHO-K1 (Chinese hamster ovary K1) cells
Test: Agonist-induced cAMP change in human CB2 transfected CHO-K1 cells
Format: cell-based
Settings: forskolin 5 μM stimulated cAMP; for EC50: 30 min 37° C.
Method: Agonist-induced cAMP Change in Human CB2 Transfected CHO-K1 Cells
Human CB2 transfected Chinese hamster ovary-K1 (CHO-K1) cells were established and grown to 60-80% confluence. The medium was changed to F-12 medium containing 10% dialysed FBS, and the cells were incubated overnight. On the day of the assay, the cells were harvested with PBS/1 mM EDTA, centrifuged and washed with PBS. Cell pellets were resuspended in the incubation buffer (F-12 medium, 20 mM HEPES, 1 mM IBMX, 0.1 mM Ro-20-1724) at the concentration of 1×10^5 cells/ml and pre-incubated for 15 min at room temperature. The agonist samples were diluted from 10 mM stock solution in DMSO and dispensed into 96-well half-area plates (12.5 μl/well) with assay buffer (F-12, 20 mM HEPES). The reaction was initiated by adding the cells (25 μl/well) into the well containing forskolin (12.5 μL/well, final 5 μM) and diluted compounds. After incubation for 30 minutes at 37° C., cAMP-XL665 conjugated, and then the anti-cAMP-cryptase conjugate was added to the lysate (25 μl/well each). After further incubation for 60 minutes at room temperature, measurements were made on the Wallac 1420 ARVOsx multilabel counter (Excitation 320 nm, Emission 665 nm/620 nm, delay time 50 μs, window time 400 μs). Data analysis was made based on the ratio of fluorescence intensity of each well at 620 nm and 665 nm. The equation “sigmoldal dose-response” was used for the determination of EC50 and Emax values.

T1 sequence (P34972 whole entry): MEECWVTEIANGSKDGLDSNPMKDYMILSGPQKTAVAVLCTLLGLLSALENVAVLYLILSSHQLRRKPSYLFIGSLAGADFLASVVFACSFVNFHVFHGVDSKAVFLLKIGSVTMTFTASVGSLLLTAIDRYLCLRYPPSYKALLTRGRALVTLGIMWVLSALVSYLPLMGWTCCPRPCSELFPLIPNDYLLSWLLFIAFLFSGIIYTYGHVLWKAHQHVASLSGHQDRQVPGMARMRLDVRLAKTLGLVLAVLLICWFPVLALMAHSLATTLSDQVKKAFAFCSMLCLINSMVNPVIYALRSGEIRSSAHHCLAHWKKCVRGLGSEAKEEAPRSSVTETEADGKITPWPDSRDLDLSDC

SMILES	Emax [%]	EC50 [nM]
CN(C)C(=O)C(C)(C)S(=O)(=O)c1ccc2c(c1)nc(CC(C)(C)C)n2CC1CC1 [Example 7, 2-{[1-(Cyclopropylmethyl)-2-(2,2-dimethylpropyl)-1H-benzimidazol-5-yl]sulfonyl}-N,N,2-trimethylpropanamide]	141	1.34
CC(C)(C)Cc1nc2cc(S(=O)(=O)C(C)(C)CNS(C)(=O)=O)ccc2n1CC1CC1 [Example 14, N-(2-{[1-(Cyclopropylmethyl)-2-(2,2-dimethylpropyl)-1H-benzimidazol-5-yl]sulfonyl}-2-methylpropyl)methanesulfonamide]	120	1.59
CC(C)(C)Cc1nc2cc(S(=O)(=O)C3(C(N)=O)CCC3)ccc2n1CC1CC1 [Example 3, 1-{[1-(Cyclopropylmethyl)-2-(2,2-dimethylpropyl)-1H-benzimidazol-5-yl]sulfonyl}cyclobutanecarboxamide]	121	0.45
CNC(=O)NCC(C)(C)S(=O)(=O)c1ccc2c(c1)nc(CC(C)(C)C)n2CC1CC1 [Example 16, N-(2-{[1-(Cyclopropylmethyl)-2-(2,2-dimethylpropyl)-1H-benzimidazol-5-yl]sulfonyl}-2-methylpropyl)-N′-methylurea]	109	1.22
CC(C)(C)Cc1nc2cc(S(=O)(=O)C(C)(C)C(=O)N3CCOCC3)ccc2n1CC1CC1 [Example 6, 1-(Cyclopropylmethyl)-5-[(1,1-dimethyl-2-morpholin-4-yl-2-oxoethyl)sulfonyl]-2-(2,2-dimethylpropyl)-1H-benzimidazole]	136	2.96
CC(C)(C)Cc1nc2cc(S(=O)(=O)C(C)(C)C(=O)NCCN)ccc2n1CC1CC1 [Example 11]	117	13.7
CC(C)(C)c1nc2cc(S(=O)(=O)C(C)(C)C(N)=O)ccc2n1CC1(O)CCCC1 [Example 12, 2-({2-tert-Butyl-1-[(1-hydroxycyclopentyl)methyl]-1H-benzimidazol-5-yl}sulfonyl)-2-methylpropanamide]	133	5.34
CC(C)(C)Cc1nc2cc(S(=O)(=O)C(C)(C)C(=O)NCC(N)=O)ccc2n1CC1CC1 [Example 10]	109	3.64
CC(C)(C)Cc1nc2cc(S(=O)(=O)C3(C(N)=O)CCOCC3)ccc2n1CC1CC1 [Example 4, 4-{[1-(Cyclopropylmethyl)-2-(2,2-dimethylpropyl)-1H-benzimidazol-5-yl]sulfonyl}tetrahydro-2H-pyran-4-carboxamide]	114	1.31
CC(C)(C)Cc1nc2cc(S(=O)(=O)C(C)(C)C(N)=O)ccc2n1CC1CC1 [Example 1, 2-{[1-(Cyclopropylmethyl)-2-(2,2-dimethylpropyl)-1H-benzimidazol-5-yl]sulfonyl}-2-methylpropanamide]	118	0.91
CC(C)(C)Cc1nc2cc(S(=O)(=O)C3(C(N)=O)CC3)ccc2n1CC1CC1 [Example 2, 1-{[1-(Cyclopropylmethyl)-2-(2,2-dimethylpropyl)-1H-benzimidazol-5-yl]sulfonyl}cyclopropanecarboxamide]	160	0.15
CC(C)(C)Cc1nc2cc(S(=O)(=O)C(C)(C)CNC(N)=O)ccc2n1CC1CC1 [Example 17, N-(2-{[1-(Cyclopropylmethyl)-2-(2,2-dimethylpropyl)-1H-benzimidazol-5-yl]sulfonyl}-2-methylpropyl)urea]	120	1.98
CC(=O)NC(C)(C)CS(=O)(=O)c1ccc2c(c1)nc(CC(C)(C)C)n2CC1CC1 [Example 19, N-(2-{[1-(Cyclopropylmethyl)-2-(2,2-dimethylpropyl)-1H-benzimidazol-5-yl]sulfonyl}-1,1-dimethylethyl)acetamide]	110	3.77
CNC(=O)C(C)(C)S(=O)(=O)c1ccc2c(c1)nc(CC(C)(C)C)n2CC1CC1 [Example 8, 2-{[1-(Cyclopropylmethyl)-2-(2,2-dimethylpropyl)-1H-benzimidazol-5-yl]sulfonyl}-N,2-dimethylpropanamide]	129	6.68
CC(C)(C)Cc1nc2cc(S(=O)(=O)CC(C)(C)NC(N)=O)ccc2n1CC1CC1 [Example 18, N-(2-{[1-(Cyclopropylmethyl)-2-(2,2-dimethylpropyl)-1H-benzimidazol-5-yl]sulfonyl}-1,1-dimethylethyl)urea]	109	26.4
CC(=O)NCC(C)(C)S(=O)(=O)c1ccc2c(c1)nc(CC(C)(C)C)n2CC1CC1 [Example 13, N-(2-{[1-(Cyclopropylmethyl)-2-(2,2-dimethylpropyl)-1H-benzimidazol-5-yl]sulfonyl}-2-methylpropyl)acetamide]	113	5.24
CC(C)(C)Cc1nc2cc(S(=O)(=O)C(C)(C)C(N)=O)cnc2n1CC1CC1 [Example 5, 2-{[3-(Cyclopropylmethyl)-2-(2,2-dimethylpropyl)-3H-imidazo[4,5-b]pyridin-6-yl]sulfonyl}-2-methylpropanamide]	118	5.53
CC(C)(C)Cc1nc2cc(S(=O)(=O)C(C)(C)C(=O)NCCO)ccc2n1CC1CC1 [Example 9, 2-{[1-(Cyclopropylmethyl)-2-(2,2-dimethylpropyl)-1H-benzimidazol-5-yl]sulfonyl}-N-(2-hydroxyethyl)-2-methylpropanamide]	127	1.13
CN(C)C(=O)NCC(C)(C)S(=O)(=O)c1ccc2c(c1)nc(CC(C)(C)C)n2CC1CC1 [Example 15, N′-(2-{[1-(Cyclopropylmethyl)-2-(2,2-dimethylpropyl)-1H-benzimidazol-5-yl]sulfonyl}-2-methylpropyl)-N,N-dimethylurea]	113	8.31

— patent US7700618B2 (Pfizer Inc, priority 2006, dated 2010)
